Results published in patent publication US20110195979A1, “COMPOUNDS FOR THE TREATMENT AND PREVENTION OF INFLUENZA” (priority 2010, published 2011).

Key:
Influenza H1N1 virus = experiment: Viral cytopathic effect (CPE) assay; format: cell-based, Influenza A (H1N1); settings: Influenza A virus, H1N1, MDCK, 72 h, read-out: CPE_EC50
Method: Cells and viruses. Madin-Darby canine kidney cell (MDCK) was purchased from American type culture collection (ATCC) and was maintained in minimal essential medium (MEM) containing 10% fetal bovine serum and antibiotics. Influenza A/Weiss/43 (H1N1), A/PR/8/34 (H1N1), and A/Hongkong/8/68 (H3N2) were purchased from ATCC and propagated in 10-day-old embryonated chicken eggs at 37° C. Virus was harvested 48 h after inoculation as pooled allantoic fluid. After a brief centrifugation (3,000 rpm at room temperature for 20 min) and virus titer measurement by a hemagglutination test, virus was aliquoted and stored at a −80° C. freezer.
Viral cytopathic effect (CPE) assay: To measure anti-influenza activity of compounds, MDCK cells were seeded into 96-well plates at a density of 5,000 cells per well. Next day, compounds were serially half-log diluted with Gibco SFM containing trypsin. Compounds and 50 pfu of virus were added into corresponding wells to make m.o.i at 0.01 and a final trypsin concentration of 2.5 μg/ml. The testing plates also contained medium control, cell control, virus control, and compound toxicity control. After a 3-day treatment, cell viability was measured with a MTT (3-(4,5-dimethylthiazol-2-yl)-2,5-diphenyltetrazolium bromide) method. Briefly, 20 μl of MTT diluted in culture medium was added into each wells and incubated at 37° C. for 4 hours. Reduced MTT (formazan) was extracted with acidic isopropanol and absorbance at wavelengths of 570 nm and 630 nm (OD570 and OD630) was read on a microtiter plate reader. After subtraction of background OD values, dose response curves of half-log concentration vs. percent protection were generated, on which half maximal effective concentration (EC50) and half maximal toxic concentration (CC50) were calculated.

MDCK cells = experiment: in vitro; settings: dog, Cytotoxicy IC50

| Compound | EC50 (Influenza H1N1 virus) [µM] | IC50 at 3 day (MDCK cells) [µM] |
| --- | --- | --- |
| CC1(C)CC(O)CC(C)(CNc2ncccc2C(F)(F)F)C1 (stereo not drawn) [Example IIIa-5, (cis-1,5)-3,3,5-Trimethyl-5-[(3-trifluoromethyl-pyridin-2-ylamino)-methyl]-cyclohexanol] | < 0.159 | 22.1 |
| CC1(C)CC(O)CC(C)(CNc2cc(S(N)(=O)=O)ccn2)C1 (stereo not drawn) [Example IIIa-8, 2-[((cis-1,5)-5-Hydroxy-1,3,3-trimethyl-cyclohexylmethyl)-amino]-pyridine-4-sulfonic acid amide] | 0.98 | > 100 |
| CC1(C)CC(O)CC(C)(CNc2nccc(C(F)(F)F)n2)C1 (stereo not drawn) [Example IIIa-10, (cis-1,5)-3,3,5-Trimethyl-5-[(4-trifluoromethyl-pyrimidin-2-ylamino)-methyl]-cyclohexanol] | 0.12 | 47.8 |
| COc1ccnc(NCC2(C)CC(O)CC(C)(C)C2)n1 (stereo not drawn) [Example IIIa-11, (cis-1,3)-3-[(4-Methoxy-pyrimidin-2-ylamino)-methyl]-3,5,5-trimethyl-cyclohexanol] | 1.5 | > 50 |
| Cc1cc(C)nc(NCC2(C)CC(O)CC(C)(C)C2)n1 (stereo not drawn) [Example IIIa-13, (cis-1,3)-3-[(4,6-Dimethyl-pyrimidin-2-ylamino)-methyl]-3,5,5-trimethyl-cyclohexanol] | 1.37 | > 100 |
| CC1(C)CC(O)CC(C)(CNc2cncc(Cl)n2)C1 (stereo not drawn) [Example IIIb-1, (cis-1,3)-3-[(6-Chloro-pyrazin-2-ylamino)-methyl]-3,5,5-trimethyl-cyclohexanol] | 4.12 | > 50 |
| CC1(C)CC(O)CC(C)(CNc2nc3ccccc3o2)C1 (stereo not drawn) [Example IIIc-1, (cis-1,3)-3-(Benzoxazol-2-ylaminomethyl)-3,5,5-trimethyl-cyclohexanol] | 1.42 | 83 |
| CC1(C)CC(F)(F)CC(C)(CNc2nc3ccccc3o2)C1 (stereo not drawn) [Example IIIc-2, Benzoxazol-2-yl-(3,3-difluoro-1,5,5-trimethyl-cyclohexylmethyl)-amine] | 3.36 | 10.9 |
| COC1CC(C)(C)CC(C)(CNc2nc3ccccc3o2)C1 (stereo not drawn) [Example IIIc-3, Benzoxazol-2-yl-((cis-1,5)-5-methoxy-1,3,3-trimethyl-cyclohexylmethyl)-amine] | 7.43 | > 50 |
| CC1(C)CC(O)CC(C)(CNc2noc3ccccc23)C1 (stereo not drawn) [Example IIId-1, (cis-1,3)-3-(Benzo[d]isoxazol-3-ylaminomethyl)-3,5,5-trimethyl-cyclohexanol] | 0.4 | > 50 |
| CC1(C)CC(O)CC(C)(CNc2nccc3ccccc23)C1 (stereo not drawn) [Example IIIf-1, (cis-1,3)-3-(Isoquinolin-1-ylaminomethyl)-3,5,5-trimethyl-cyclohexanol] | 2.37 | 43.7 |
| COc1cccc(NCC2(C)CC(O)CC(C)(C)C2)c1 (stereo not drawn) [Example IIa-8, (cis-1,3)-3-[(3-Methoxy-phenylamino)-methyl]-3,5,5-trimethyl-cyclohexanol] | 0.2 | > 50 |
| CC(C)c1cccc(NCC2(C)CC(O)CC(C)(C)C2)c1 (stereo not drawn) [Example IIa-12, (cis-1,3)-3-[(3-Isopropyl-phenylamino)-methyl]-3,5,5-trimethyl-cyclohexanol] | 0.09 | 6.68 |
| CC1(C)CC(O)CC(C)(CNc2cc(F)cc(C(F)(F)F)c2)C1 (stereo not drawn) [Example IIa-17, (cis-1,3)-3-[(3-Fluoro-5-trifluoromethyl-phenylamino)-methyl]-3,5,5-trimethyl-cyclohexanol] | 0.018 | 3.66 |
| Cc1cc(Cl)cc(NCC2(C)CC(O)CC(C)(C)C2)c1 (stereo not drawn) [Example IIa-18, (cis-1,3)-3-[(3-Chloro-5-methyl-phenylamino)-methyl]-3,5,5-trimethyl-cyclohexanol] | 0.025 | > 3.16 |
| CC1(C)CC(O)CC(C)(CNc2cc(Cl)cc(Cl)c2)C1 (stereo not drawn) [Example IIa-19, (cis-1,3)-3-[(3,5-Dichloro-phenylamino)-methyl]-3,5,5-trimethyl-cyclohexanol] | 0.032 | 7.19 |
| CC1(C)CC(O)CC(C)(CNc2cc(Br)cc(C(F)(F)F)c2)C1 (stereo not drawn) [Example IIa-21, (cis-1,3)-3-[(3-Bromo-5-trifluoromethyl-phenylamino)-methyl]-3,5,5-trimethyl-cyclohexanol] | 0.058 | > 3.16 |

| Compound | EC50 (Influenza H1N1 virus) [µM] | IC50 at 3 day (MDCK cells) [µM] |
| --- | --- | --- |
| CC1(C)CC(O)CC(C)(CNc2cc(F)cc(C#N)c2)C1 (stereo not drawn) [Example IIa-22, 3-Fluoro-5-[((cis-1,5)-5-hydroxy-1,3,3-trimethyl-cyclohexylmethyl)-amino]-benzonitrile] | 0.05 | 23.9 |
| CC1(C)CC(O)CC(C)(CNc2cc(C#N)cc(C(F)(F)F)c2)C1 (stereo not drawn) [Example IIa-24, 3-[((cis-1,5)-5-Hydroxy-1,3,3-trimethyl-cyclohexylmethyl)-amino]-5-trifluoromethyl-benzonitrile] | 0.04 | 13.2 |
| CC1(C)CC(O)CC(C)(CNc2cc(C(F)(F)F)cc(C(F)(F)F)c2)C1 (stereo not drawn) [Example IIa-25, (cis-1,3)-3-[(3,5-Bis-trifluoromethyl-phenylamino)-methyl]-3,5,5-trimethyl-cyclohexanol] | 0.095 | 2.83 |
| CC1(C)CC(O)CC(C)(CNc2ccc(Cl)c(Cl)c2)C1 (stereo not drawn) [Example IIa-27, (cis-1,3)-3-[(3,4-Dichloro-phenylamino)-methyl]-3,5,5-trimethyl-cyclohexanol] | 0.068 | 2.49 |
| CN(CC1(C)CC(O)CC(C)(C)C1)c1cccc(Cl)c1 (stereo not drawn) [Example IIb-1, (cis-1,3)-3-{[(3-Chloro-phenyl)-methyl-amino]-methyl}-3,5,5-trimethyl-cyclohexanol] | 0.6 | 7.58 |
| CC1(C)CCCC(C)(CNc2cc(F)cc(C(F)(F)F)c2)C1 (stereo not drawn) [Example IIc-1, (3-Fluoro-5-trifluoromethyl-phenyl)-(1,3,3-trimethyl-cyclohexylmethyl)-amine] | 0.237 | 2.32 |
| CC(=O)OC1CC(C)(C)CC(C)(CNc2ccccc2)C1 (stereo not drawn) [Example IId-1, Acetic acid (cis-1,5)-3,3,5-trimethyl-5-phenylaminomethyl-cyclohexyl ester] | 0.492 | 64.4 |
| CC1(C)CC(F)(F)CC(C)(CNc2cc(F)cc(C(F)(F)F)c2)C1 (stereo not drawn) [Example IIe-1, (3,3-Difluoro-1,5,5-trimethyl-cyclohexylmethyl)-(3-fluoro-5-trifluoromethyl-phenyl)-amine] | 0.264 | > 3.16 |
| COC1CC(C)(C)CC(C)(CNc2cc(F)cc(C(F)(F)F)c2)C1 (stereo not drawn) [Example IIf-1, (3-Fluoro-5-trifluoromethyl-phenyl)-((cis-1,5)-5-methoxy-1,3,3-trimethyl-cyclohexylmethyl)-amine] | 0.129 | > 3.16 |
| CC1(C)CC(C)(O)CC(C)(CNc2cc(F)cc(C(F)(F)F)c2)C1 (stereo not drawn) [Example IIg-1, (cis-1,3)-3-[(3-Fluoro-5-trifluoromethyl-phenylamino)-methyl]-1,3,5,5-tetramethyl-cyclohexanol] | 0.089 | > 3.16 |
| CN(C)C1CC(C)(C)CC(C)(CNc2cc(F)cc(C(F)(F)F)c2)C1 (stereo not drawn) [Example IIh-1, ((cis-1,5)-5-Dimethylamino-1,3,3-trimethyl-cyclohexylmethyl)-(3-fluoro-5-trifluoromethyl-phenyl)-amine] | 1.7 | 8.39 |
| CC1(C)CC(O)CC(C)(C(=O)Nc2cccc(Cl)c2)C1 (stereo not drawn) [Example IVa-3, (cis-1,5)-5-Hydroxy-1,3,3-trimethyl-cyclohexanecarboxylic acid(3-chloro-phenyl)-amide] | 0.46 | 82.1 |
| CC1(C)CC(O)CC(C)(C(=O)Nc2cccc(C(F)(F)F)c2)C1 (stereo not drawn) [Example IVa-4, (cis-1,5)-5-Hydroxy-1,3,3-trimethyl-cyclohexanecarboxylic acid(3-trifluoromethyl-phenyl)-amide] | 0.34 | 68.3 |
| CC(C)c1cccc(NC(=O)C2(C)CC(O)CC(C)(C)C2)c1 (stereo not drawn) [Example IVa-5, (cis-1,5)-5-Hydroxy-1,3,3-trimethyl-cyclohexanecarboxylic acid(3-isopropyl-phenyl)-amide] | 1.04 | 21.6 |
| CC1(C)CC(O)CC(C)(C(=O)Nc2cccc(OC(F)(F)F)c2)C1 (stereo not drawn) [Example IVa-8, (cis-1,5)-5-Hydroxy-1,3,3-trimethyl-cyclohexanecarboxylic acid(3-trifluoromethoxy-phenyl)-amide] | 0.861 | 60 |
| CC1(C)CC(O)CC(C)(C(=O)Nc2cccc(S(N)(=O)=O)c2)C1 (stereo not drawn) [Example IVa-10, (cis-1,5)-5-Hydroxy-1,3,3-trimethyl-cyclohexanecarboxylic acid(3-sulfamoyl-phenyl)-amide] | 7.96 | > 100 |
